Experimental data as given in US20170363612A1, “COMPOSITIONS AND METHODS RELATING TO PROLIFERATIVE DISORDERS” (Wayne State University, priority 2014, published 2017).
Values joined by “and” are separate entries in the source; they are usually repeats but may differ in a detail not shown here. Identical values can stand only once. Like-named read-outs stand apart in the source and are kept apart here.

How the values were obtained:
LD50 in mice (quoted) = conditions: oral 0.000054 mg/kg/day vs mouse LD50
[1] = cited from earlier work
topoisomerase I = molecular target: T1, topoisomerase I (Homo sapiens, UniProt P11387); conditions: cited from earlier work
T1 sequence (P11387 1-765): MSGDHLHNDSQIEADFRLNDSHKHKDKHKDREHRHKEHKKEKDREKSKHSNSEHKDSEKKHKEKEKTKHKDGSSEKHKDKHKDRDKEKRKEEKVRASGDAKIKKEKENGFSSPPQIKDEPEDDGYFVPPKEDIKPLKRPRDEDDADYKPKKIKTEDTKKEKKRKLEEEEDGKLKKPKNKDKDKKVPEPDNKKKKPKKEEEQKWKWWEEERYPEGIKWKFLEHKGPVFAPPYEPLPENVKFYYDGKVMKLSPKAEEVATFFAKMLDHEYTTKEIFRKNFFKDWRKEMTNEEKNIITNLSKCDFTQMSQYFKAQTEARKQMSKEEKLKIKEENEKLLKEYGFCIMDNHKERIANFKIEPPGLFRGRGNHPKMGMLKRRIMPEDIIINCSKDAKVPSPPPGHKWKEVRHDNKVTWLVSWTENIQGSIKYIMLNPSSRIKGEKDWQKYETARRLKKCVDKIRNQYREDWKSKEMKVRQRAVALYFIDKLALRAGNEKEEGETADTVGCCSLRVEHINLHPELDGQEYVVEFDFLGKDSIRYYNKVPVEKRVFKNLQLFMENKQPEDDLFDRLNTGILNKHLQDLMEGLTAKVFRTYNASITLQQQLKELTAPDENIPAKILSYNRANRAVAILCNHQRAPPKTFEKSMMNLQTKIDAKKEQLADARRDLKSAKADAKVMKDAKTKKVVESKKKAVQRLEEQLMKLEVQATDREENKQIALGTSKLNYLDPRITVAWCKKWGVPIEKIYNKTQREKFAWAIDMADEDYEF

PKC = conditions: cited from earlier work
SET Ribosome [2] = assay: TPA Reference Standard Response Modifier Assay with ribosome binding translation inhibitors, HEK293 hTRdm-fLUC#13; format: cell-based, human; conditions: with 100 nM TPA, 6 hours
LD50 in rats (quoted) = conditions: oral 0.00013 mg/kg/day
[3] = cited from earlier work; remark: listed apart in the source
SET Ribosome [4] = assay: Topotecan Modifier Assay on TPA Reference Standard response, HEK293 TR cell lines; format: cell-based, human; conditions: HEK293 hTRdm-fLUC#13 and mTRdm-fLUC#45; with 100 nM TPA; 6 hours
[5] = in vivo, po; cited from earlier work
SET Ribosome [6] = test system: SET Ribosome
SET Ribosome [7] = assay: Topotecan dose response assay, MCF7 TR Cell Panel; format: cell-based, human

What does the source list for `COc1ccc(C[C@H]2NC[C@H](O)[C@H]2OC(C)=O)cc1` [anisomycin, (2R,3S,4S)-4-hydroxy-2-(4-methoxybenzyl)-pyrrolidin-3-yl acetate]?
factor by which the IC100 dose is lower than a toxic concentration (LD50 in mice (quoted)): > 14,000 ×; LD50 ([1]; route not stated): 75 to 200 mg/kg

With `CCc1c2c(nc3ccc(O)cc13)-c1cc3c(c(=O)n1C2)COC(=O)[C@]3(O)CC` [SN-38, 7-ethyl-10-hydroxy-camptothecin] as the compound, how does the “potency relative to irinotecan” value (topoisomerase I) read?
The value was 1000 X.

With Bryostatin 2 as the compound, how does the “enzyme binding constant relative to bryostatin 1” value (PKC) read?
Its value is 10 times.

With `CC[C@H]1CN2CCc3cc(OC)c(OC)cc3[C@@H]2C[C@@H]1C[C@H]1NCCc2cc(OC)c(OC)cc21` [emetine, (2S, 3R, 11bS)-2-{{(1R)-6,7-dimethoxy-1,2,3,4-tetrahydroisoquinolin-1-yl]methyl}-3-ethyl-9,10-dimethoxy-2,3,4,6,7,11b-hexahydro-1H-pyrido[2,1-a] isoquinoline] as the compound, how does the IC50 (SET Ribosome [2]; Homo sapiens, HEK293, read-out: IC50, SET ribosome inhibition) read?
The IC50 was 175 nM.

And the “IC100 (100% SET Ribosome inhibition)” value (SET Ribosome [2])?
Its value is 2.5 µM and 2.5 to 10 µM.

What about the “factor by which the IC100 dose is lower than the rat LD50” value (LD50 in rats (quoted)) of the same compound?
The value was > 5,231 ×.

What about the LD50 ([3]; intravenous) of the same compound?
Its LD50 is 5 µM.

And the LD50 ([3]; oral)?
Its LD50 is 35 µM.

What about the LD50 ([1]; subcutaneous) of the same compound?
The LD50 was 58 µM.

With `CC[C@@]1(O)C(=O)OCc2c1cc1n(c2=O)Cc2cc3c(CN(C)C)c(O)ccc3nc2-1.Cl` [Topotecan, (S)-10-[(dimethylamino)methyl]-4-ethyl-4,9-dihydroxy-1H-pyrano[3′,4′:6,7]indolizino[1,2-b]quinoline-3,14(4H,12H)-dione monohydrochloride] as the compound, how does the “doses completely blocking SET Ribosome activity” value (SET Ribosome [4]) read?
Its value is over 5 µM.

And the oral bioavailability [5]?
Its oral bioavailability is about 40%.

What about the “time of peak plasma concentration post-administration” value [5] of the same compound?
The value was 1 to 2 h.

And the “SET Response” value (SET Ribosome [6]; High dose (HD) 10 uM)?
The value was “Antagonist”.

What about the “SET Response” value (SET Ribosome [6]; Low dose (LD): Calon 1 uM, Topotecan 100 nM) of the same compound?
Its value is “Agonist”.

What about the IC100 (SET Ribosome [7]; MCF7 TR Cell Panel) of the same compound?
Its IC100 is over 5 µM.

And the “dose of maximal SET response” value (SET Ribosome [7]; MCF7 TR Cell Panel)?
Its value is 10 nM.

And the “dose range of SET Agonist activity” value (SET Ribosome [7]; MCF7 TR Cell Panel)?
The value was 2 to 100 nM.

What about the “concentrations giving complete SET Ribosome block” value (SET Ribosome [7]; MCF7 TR Class 3 and Class 4 lines, 6 hours) of the same compound?
Its value is at least 5 µM.
